Laboratory results published in publication PMC10239048, “Synthesis and antioxidant, antimicrobial, and antiviral activity of some pyrazole-based heterocycles using a 2(3H)-furanone derivative” (Journal of the Iranian Chemical Society, 2023).
≈ marks a conversion by molar mass, not a printed value.

Columns and labels:
Candida albicans = experiment: Agar diffusion antifungal activity, Candida albicans; type: cell-based; conditions: diffusion method
[1] = Total antioxidant capacity (TAC), phosphomolybdenum method; conditions: for Total antioxidant capacity: 500 µg/ml in methanol, 95 °C 90 min, 695 nm, means ± S.D., n = 3
Haemophilus (Gram –ve) [2] = experiment: MIC measurement by serial dilution, Haemophilus; type: cell-based; conditions: read-out: MIC Haemophilus (Gram –ve)
[3] = system: avian influenza HPAI-H5N1 (AIV); design: species or system avian influenza virus HPAI-H5N1; conditions: in vivo
Staphylococcus aureus [4] = experiment: Agar/disk diffusion inhibition zone, Staphylococcus aureus; type: cell-based; conditions: diffusion method
Haemophilus (Gram –ve) [5] = experiment: Agar/disk diffusion inhibition zone, Haemophilus; type: cell-based; conditions: diffusion method
SPF chicks = experiment: Immune-boosting properties in vaccinated SPF chicks (humeral response); type: in vivo, chicken; conditions: for Humeral response of vaccinated groups which received each tested compound separately: SPF chicks, vaccine-only group 7 log2; for Immune-boosting properties (in words): antibody titer in serum of vaccinated chicks
[6] = system: avian influenza HPAI-H5N1 (AIV); design: species or system avian influenza virus HPAI-H5N1; conditions: in vivo; remark: listed apart in the source
Staphylococcus aureus [7] = experiment: MIC measurement by serial dilution, Staphylococcus aureus; type: cell-based; conditions: 37 °C, 24–72 h, read-out: MIC Staph (Gram + ve)
[8] = system: embryonated chicken SPF eggs; conditions: in vivo

CC(=O)N(C(C)=O)N1C(=O)C(=Cc2c(C)nn(-c3ccccc3)c2Cl)C=C1c1ccc(C)cc1 [Compound 13, N-Acetyl-N-(3-((5-chloro-3-methyl-1-phenyl-1H-pyrazol-4-yl)methylene)-2-oxo-5-(p-tolyl)-2,3-dihydro-1H-pyrrol-1-yl)acetamide]
Candida albicans (diameter of inhibition zone) (Candida albicans): 14 mm | Antioxidant activity (in words) [1]: Moderate antioxidant activity | Total antioxidant capacity [1]: 190.0 ± 1.67 mg AAE/g dry compound | MIC (Haemophilus (Gram –ve) [2]): 10 µg/mL (≈ 21.1 µM) | Antiviral activity against avian influenza virus (in words) [3]: less antiviral activity | Inhibition diameter Staph (Gram + ve) (Staphylococcus aureus [4]): 14 mm | Inhibition diameter Haemophilus (Gram –ve) (Haemophilus (Gram –ve) [5]): 12 mm | Humeral response of vaccinated groups which received each tested compound separately (SPF chicks): 6.9 log2 | TI [6]: 71.42 | MIC (Staphylococcus aureus [7]): 9 µg/mL | CC50 [8]: 500 > µl/ egg

Cc1ccc(C(=O)CC(=Cc2c(C)nn(-c3ccccc3)c2Cl)C(=O)NNc2ccccc2)cc1 [Compound 10, 2-((5-Chloro-3-methyl-1-phenyl-1H-pyrazol-4-yl)methylene)-4-oxo-N'-phenyl-4-(p-tolyl)butanehydrazide]
Candida albicans (diameter of inhibition zone) (Candida albicans): 7 mm | Antioxidant activity (in words) [1]: highest potent levels of activity | Total antioxidant capacity [1]: 336.0 ± 3.46 mg AAE/g dry compound | MIC (Haemophilus (Gram –ve) [2]): 17 µg/mL (≈ 35.1 µM) | Antiviral activity against avian influenza virus (in words) [3]: little antiviral activity | Inhibition diameter Staph (Gram + ve) (Staphylococcus aureus [4]): 7 mm | Inhibition diameter Haemophilus (Gram –ve) (Haemophilus (Gram –ve) [5]): 6 mm | Humeral response of vaccinated groups which received each tested compound separately (SPF chicks): 6.9 log2 | TI [6]: 55.5 | MIC (Staphylococcus aureus [7]): 13 µg/mL | CC50 [8]: 500 > µl/ egg

Cc1ccc(C2=CC(=Cc3c(C)nn(-c4ccccc4)c3Cl)C(=O)N2NC(=O)c2ccccc2)cc1 [Compound 14, N-(3-((5-Chloro-3-methyl-1-phenyl-1H-pyrazol-4-yl)methylene)-2-oxo-5-(p-tolyl)-2,3-dihydro-1H-pyrrol-1-yl)benzamide]
Candida albicans (diameter of inhibition zone) (Candida albicans): 7 mm | Total antioxidant capacity [1]: 261.0 ± 2.48 mg AAE/g dry compound | MIC (Haemophilus (Gram –ve) [2]): 16 µg/mL (≈ 32.3 µM) | Antiviral activity against avian influenza virus (in words) [3]: little antiviral activity | Inhibition diameter Staph (Gram + ve) (Staphylococcus aureus [4]): 7 mm | Inhibition diameter Haemophilus (Gram –ve) (Haemophilus (Gram –ve) [5]): 8 mm | Humeral response of vaccinated groups which received each tested compound separately (SPF chicks): 7.2 log2 | TI [6]: 55.5 | MIC (Staphylococcus aureus [7]): 16 µg/mL | CC50 [8]: 500 > µl/ egg

Cc1ccc(C(=O)CC(=Cc2c(C)nn(-c3ccccc3)c2Cl)C2=NCCN2)cc1 [Compound 11, 4-(5-Chloro-3-methyl-1-phenyl-1H-pyrazol-4-yl)-3-(4,5-dihydro-1H-imidazol-2-yl)-1-(p-tolyl)but-3-en-1-one]
Candida albicans (diameter of inhibition zone) (Candida albicans): 24 mm | Total antioxidant capacity [1]: 280.0 ± 2.0 mg AAE/g dry compound | MIC (Haemophilus (Gram –ve) [2]): 2 µg/mL (≈ 4.77 µM) | Antiviral activity against avian influenza virus (in words) [3]: remarked antiviral activity | Virus titer with compound [3]: 10^1 | Inhibition diameter Staph (Gram + ve) (Staphylococcus aureus [4]): 25 mm | Inhibition diameter Haemophilus (Gram –ve) (Haemophilus (Gram –ve) [5]): 22 mm | Humeral response of vaccinated groups which received each tested compound separately (SPF chicks): 7.1 log2 | Immune-boosting properties (in words) (SPF chicks): special immune-boosting properties | TI [6]: 83.3 | MIC (Staphylococcus aureus [7]): 5 µg/mL | CC50 [8]: 500 > µl/ egg

Cc1ccc(C(=O)CC(=Cc2c(C)nn(-c3ccccc3)c2Cl)C(=O)NN)cc1 [Compound 8, 2-((5-Chloro-3-methyl-1-phenyl-1H-pyrazol-4-yl)methylene)-4-oxo-4-(p-tolyl)butanehydrazide]
Candida albicans (diameter of inhibition zone) (Candida albicans): 8 mm | Antioxidant activity (in words) [1]: Moderate antioxidant activity | Total antioxidant capacity [1]: 145.0 ± 1.73 mg AAE/g dry compound | MIC (Haemophilus (Gram –ve) [2]): 12 µg/mL (≈ 29.3 µM) | Antiviral activity against avian influenza virus (in words) [3]: little antiviral activity | Inhibition diameter Staph (Gram + ve) (Staphylococcus aureus [4]): 8 mm | Inhibition diameter Haemophilus (Gram –ve) (Haemophilus (Gram –ve) [5]): 4 mm | Humeral response of vaccinated groups which received each tested compound separately (SPF chicks): 6.6 log2 | TI [6]: 55.5 | MIC (Staphylococcus aureus [7]): 13 µg/mL | CC50 [8]: 500 > µl/ egg

Cc1ccc(C2=CC(=Cc3c(C)nn(-c4ccccc4)c3Cl)C(=O)N2)cc1 [Compound 4, 3-((5-Chloro-3-methyl-1-phenyl-1H-pyrazol-4-yl)methylene)-5-(p-tolyl)-1,3-dihydro-2H-pyrrol-2-one]
Candida albicans (diameter of inhibition zone) (Candida albicans): 25 mm | Total antioxidant capacity [1]: 278.56 ± 4.61 mg AAE/g dry compound | MIC (Haemophilus (Gram –ve) [2]): 6 µg/mL (≈ 16 µM) | Antiviral activity against avian influenza virus (in words) [3]: remarked antiviral activity | Virus titer with compound [3]: 10^1 | Inhibition diameter Staph (Gram + ve) (Staphylococcus aureus [4]): 25 mm | Inhibition diameter Haemophilus (Gram –ve) (Haemophilus (Gram –ve) [5]): 22 mm | Humeral response of vaccinated groups which received each tested compound separately (SPF chicks): 7.5 log2 | Immune-boosting properties (in words) (SPF chicks): special immune-boosting properties | TI [6]: 83.3 | MIC (Staphylococcus aureus [7]): 5 µg/mL | CC50 [8]: 500 > µl/ egg

Cc1ccc(-c2cc(Cc3c(C)nn(-c4ccccc4)c3Cl)c(=O)[nH]n2)cc1 [Compound 9, 4-((5-chloro-3-methyl-1-phenyl-1H-pyrazol-4-yl)methyl)-6-(p-tolyl)pyridazin-3(2H)-one]
Candida albicans (diameter of inhibition zone) (Candida albicans): 2 mm | Antioxidant activity (in words) [1]: highest potent levels of activity | Total antioxidant capacity [1]: 374.0 ± 2.08 mg AAE/g dry compound | MIC (Haemophilus (Gram –ve) [2]): 20 µg/mL (≈ 51.2 µM) | Antiviral activity against avian influenza virus (in words) [3]: little antiviral activity | Inhibition diameter Staph (Gram + ve) (Staphylococcus aureus [4]): 2 mm | Inhibition diameter Haemophilus (Gram –ve) (Haemophilus (Gram –ve) [5]): 1 mm | Humeral response of vaccinated groups which received each tested compound separately (SPF chicks): 6log2 | Immune-boosting properties (in words) (SPF chicks): less immune-boosting properties | TI [6]: 50 | MIC (Staphylococcus aureus [7]): 19 µg/mL | CC50 [8]: 400 > µl/ egg

Cc1ccc(C2=CC(=Cc3c(C)nn(-c4ccccc4)c3Cl)C(=O)O2)cc1 [Compound 3, 3-((5-Chloro-3-methyl-1-phenyl-1H-pyrazol-4-yl)methylene)-5-(p-tolyl)furan-2(3H)-one]
Candida albicans (diameter of inhibition zone) (Candida albicans): 24 mm | Antioxidant activity (in words) [1]: Moderate antioxidant activity | Total antioxidant capacity [1]: 156.33 ± 4.04 mg AAE/g dry compound | MIC (Haemophilus (Gram –ve) [2]): 1 µg/mL (≈ 2.65 µM) | Antiviral activity against avian influenza virus (in words) [3]: remarked antiviral activity | Virus titer with compound [3]: 10^1 | Inhibition diameter Staph (Gram + ve) (Staphylococcus aureus [4]): 23 mm | Inhibition diameter Haemophilus (Gram –ve) (Haemophilus (Gram –ve) [5]): 22 mm | Humeral response of vaccinated groups which received each tested compound separately (SPF chicks): 7.3 log2 | Immune-boosting properties (in words) (SPF chicks): special immune-boosting properties | TI [6]: 96.77 | MIC (Staphylococcus aureus [7]): 2 µg/mL | CC50 [8]: 300 > µl/ egg

Cc1ccc(C(=O)CC(=Cc2c(C)nn(-c3ccccc3)c2Cl)C(=O)NCc2ccccc2)cc1 [Compound 5, N-Benzyl-2-((5-chloro-3-methyl-1-phenyl-1H-pyrazol-4-yl)methylene)-4-oxo-4-(p-tolyl)butanamide]
Candida albicans (diameter of inhibition zone) (Candida albicans): 22 mm | Total antioxidant capacity [1]: 221.14 ± 4.63 mg AAE/g dry compound | MIC (Haemophilus (Gram –ve) [2]): 3 µg/mL (≈ 6.2 µM) | Antiviral activity against avian influenza virus (in words) [3]: remarked antiviral activity | Virus titer with compound [3]: 10^1 | Inhibition diameter Staph (Gram + ve) (Staphylococcus aureus [4]): 24 mm | Inhibition diameter Haemophilus (Gram –ve) (Haemophilus (Gram –ve) [5]): 23 mm | Humeral response of vaccinated groups which received each tested compound separately (SPF chicks): 7.4 log2 | Immune-boosting properties (in words) (SPF chicks): special immune-boosting properties | TI [6]: 96.77 | MIC (Staphylococcus aureus [7]): 3 µg/mL | CC50 [8]: 300 > µl/ egg

Cc1ccc(C(=O)CC(=Cc2c(C)nn(-c3ccccc3)c2Cl)C(=O)NN=Cc2cn(-c3ccccc3)nc2-c2ccccc2)cc1 [Compound 16, 2-((5-Chloro-3-methyl-1-phenyl-1H-pyrazol-4-yl)methylene)-N'-((1,3-diphenyl-1H-pyrazol-4-yl)methylene)-4-oxo-4-(p-tolyl)butanehydrazide]
Candida albicans (diameter of inhibition zone) (Candida albicans): 23 mm | Total antioxidant capacity [1]: 205.82 ± 2.45 mg AAE/g dry compound | MIC (Haemophilus (Gram –ve) [2]): 6 µg/mL (≈ 9.39 µM) | Antiviral activity against avian influenza virus (in words) [3]: remarked antiviral activity | Virus titer with compound [3]: 10^1 | Inhibition diameter Staph (Gram + ve) (Staphylococcus aureus [4]): 22 mm | Inhibition diameter Haemophilus (Gram –ve) (Haemophilus (Gram –ve) [5]): 23 mm | Humeral response of vaccinated groups which received each tested compound separately (SPF chicks): 7.2 log2 | Immune-boosting properties (in words) (SPF chicks): special immune-boosting properties | TI [6]: 83.3 | MIC (Staphylococcus aureus [7]): 5 µg/mL | CC50 [8]: 500 > µl/ egg

Cc1ccc(C(=O)CC(=Cc2c(C)nn(-c3ccccc3)c2Cl)C(=O)NCC(C)C)cc1 [Compound 6, 2-((5-Chloro-3-methyl-1-phenyl-1H-pyrazol-4-yl)methylene)-N-isobutyl-4-oxo-4-(p-tolyl)butanamide]
Candida albicans (diameter of inhibition zone) (Candida albicans): 20 mm | Total antioxidant capacity [1]: 248.67 ± 4.11 mg AAE/g dry compound | MIC (Haemophilus (Gram –ve) [2]): 5 µg/mL (≈ 11.1 µM) | Antiviral activity against avian influenza virus (in words) [3]: remarked antiviral activity | Virus titer with compound [3]: 10^1 | Inhibition diameter Staph (Gram + ve) (Staphylococcus aureus [4]): 22 mm | Inhibition diameter Haemophilus (Gram –ve) (Haemophilus (Gram –ve) [5]): 25 mm | Humeral response of vaccinated groups which received each tested compound separately (SPF chicks): 7.4 log2 | Immune-boosting properties (in words) (SPF chicks): special immune-boosting properties | TI [6]: 83.3 | MIC (Staphylococcus aureus [7]): 4 µg/mL | CC50 [8]: 500 > µl/ egg
